The nature of this assay: Functional Dkk1-LRP5-TCF-Luciferase Assay in U2OS Cells (table columns: A=MAX FOLD Induction/DMSO CONTROL; B=fold induction @ 2.0 uM; C=fold induction @ 20.0 uM). The class given is cell-based, Human. Conditions: Homo sapiens, U2OS; for fold induction at 2 µM: 2.0 uM compound; for fold induction at 20 µM: 20.0 uM compound. The protocol: Biological Evaluation—Functional Dkk1-LRP5-TCF-Luciferase Assay in U2OS Cells
U2OS Human Bone derived cells (Osteosarcoma) are grown in McCoy's 5A Medium (Modified), with L-glutamine (GIBCO Cat No. 16600-082)+1% Pen-Strep+5% FBS) plated at 1×10^7 cells/T175 cm flask. The next day, the cells are co-transfected overnight with the following plasmids: (a) Test reporter (16×TCF-TK-FireFly-Luci), (b) Internal Control Reporter (TK-Renilla-Luci), (c) Wnt3a and (d) Dkk1. GIBCO's Lipofectamine 2000 and OptiMEM were used for the transfection. After a minimum of 4 hr of transfection at 37° C., the plasmid-transfected cells are trypsinized, counted, and suspended in freezing medium (95% FBS+5% DMSO). The reporter cells are frozen at 1×10^7/ml concentrations, aliquoted into 0.5 ml or 2.5 ml/tube and stored at −70° C.
The following day, test compounds are added under HTS setup by Plate Track into 384 well plates (white, TC treated, Falcon plate) such that the final concentration of the compounds in 20 μL/well cell will be 5 μg/ml (final concentration of DMSO=0.25% and final compound concentration=20 μM). Vials of frozen reporter cells are thawed by warming the vial in a 37° C. water bath for 60-120 seconds with some shaking until the cells formed a suspension. The thawed cells are transferred into a cold 50 ml (or larger) tube and mixed well by gentle pipetting. The appropriate amount of cold Phenol Red Free RPMI medium-1640 (GIBCO, Cat # 11835-030) with L-glutamine is added, both with ˜5% FBS (GIBCO-BRL, Cat. # 16000-044), so that 20 μl of the final cell suspension will contain ˜5,000 cells. The cell dilution is done such that the final concentration of FBS was ˜5%. Diluted cells (20 μl) are added into each well in a 384 well plate. The plate is incubated at 37° C. under 5% CO2 for ˜20 h. Bright-Glo substrate, 2.5 μl/well is added, and the Fire Fly Luciferase is measured using VLUX (60 second exposure) immediately after the substrate was added. Test compounds are dissolved in DMSO (100%) and added to specified wells. Raw luciferase signal data obtained as relative luminescence units (RLUs) for the test compounds are normalized to the signal of the mean of the sample reporter cell plate with DMSO.
Active compounds have TCF-luciferase ratios of 2.5 fold or greater over DMSO. All compounds show a signal increase of at least 10% compared to a signal with only DMSO added.
A=MAX FOLD Induction/DMSO CONTROL
B=TCF ACTIVITY/DMSO CONTROL Fold induction @ 2.0 uM C=TCF ACTIVITY/DMSO CONTROL Fold induction @ 20.0 uM

This note sets out measurements from US20090069319A1, “IMIDAZOPYRIDINE ANALOGS AND THEIR USE AS AGONISTS OF THE WNT-BETA-CATENIN CELLULAR MESSAGING SYSTEM” (Wyeth, priority 2007, published 2009).

The structures appear in SMILES notation.

As a reminder, the fold induction is the signal under treatment as a multiple of the control signal. As for `O=[N+]([O-])c1cc(-c2nc3c(-c4ccc5ccccc5c4)ccnc3n2C2CCNCC2)ccc1N1CCOCC1` [2-(4-morpholin-4-yl-3-nitrophenyl)-7-(2-naphthyl)-3-piperidin-4-yl-3H-imidazo[4,5-b]pyridine], the fold induction at 2 µM is 1.44 and the fold induction at 20 µM was determined as 0.06.
Turning to `CC(C)(C)c1ccc(-c2nc3cc(-c4ccc5ccccc5c4)cnc3n2C2CCNCC2)cc1` [2-(4-tert-butylphenyl)-6-(2-naphthyl)-3-piperidin-4-yl-3H-imidazo[4,5-b]pyridine], the fold induction at 2 µM turned out to be 1.13.
The same measure, in the same setting: the value for `CC(C)(C)c1ccc(-c2nc3c(-c4ccc5ccccc5c4)ccnc3n2C2CCNCC2)cc1` [2-(4-tert-butylphenyl)-7-(2-naphthyl)-3-piperidin-4-yl-3H-imidazo[4,5-b]pyridine] was 1.88; that for `COc1ccc2[nH]cc(-c3nc4c(-c5ccc6ccccc6c5)ccnc4n3C3CCNCC3)c2c1` [2-(5-methoxy-1H-indol-3-yl)-7-(2-naphthyl)-3-piperidin-4-yl-3H-imidazo[4,5-b]pyridine] was 1.2.
The same measure, in the same setting: then `Cc1ccc2[nH]cc(-c3nc4c(-c5ccc6ccccc6c5)ccnc4n3C3CCNCC3)c2c1` [2-(5-methyl-1H-indol-3-yl)-7-(2-naphthyl)-3-piperidin-4-yl-3H-imidazo[4,5-b]pyridine], with 1.92; and `Cc1ccc(-c2nc3cc(-c4ccc5ccccc5c4)cnc3n2C2CCNCC2)o1` [2-(5-methyl-2-furyl)-6-(2-naphthyl)-3-piperidin-4-yl-3H-imidazo[4,5-b]pyridine], with 1.23; and `Cc1ccc(-c2nc3c(-c4ccc5ccccc5c4)ccnc3n2C2CCNCC2)o1` [2-(5-methyl-2-furyl)-7-(2-naphthyl)-3-piperidin-4-yl-3H-imidazo[4,5-b]pyridine], with 1.17.
In the case of `FC(F)(F)c1ccc(C(F)(F)F)c(-c2nc3c(-c4ccc5ccccc5c4)ccnc3n2C2CCNCC2)c1` [2-[2,5-bis(trifluoromethyl)phenyl]-7-(2-naphthyl)-3-piperidin-4-yl-3H-imidazo[4,5-b]pyridine], the fold induction at 2 µM stood at 1.45.
The same measure, in the same setting: the value for `FC(F)(F)c1cccc(-c2nc3c(-c4ccc5ccccc5c4)ccnc3n2C2CCNCC2)c1Cl` [2-[2-chloro-3-(trifluoromethyl)phenyl]-7-(2-naphthyl)-3-piperidin-4-yl-3H-imidazo[4,5-b]pyridine] was 1.21; that for `Fc1ccc(-c2nc3c(-c4ccc5ccccc5c4)ccnc3n2C2CCNCC2)c(C(F)(F)F)c1` [2-[4-fluoro-2-(trifluoromethyl)phenyl]-7-(2-naphthyl)-3-piperidin-4-yl-3H-imidazo[4,5-b]pyridine] was 1.11.
On to `Oc1ccccc1-c1nc2c(-c3ccc4ccccc4c3)ccnc2n1C1CCNCC1` [2-[7-(2-naphthyl)-3-piperidin-4-yl-3H-imidazo[4,5-b]pyridin-2-yl]phenol], for which the fold induction at 2 µM amounted to 1.35 and the fold induction at 20 µM came to 0.01.
On the same counts, the results for `c1ccc2cc(-c3ccnc4c3nc(-c3ccc5ccccc5n3)n4C3CCNCC3)ccc2c1` [2-[7-(2-naphthyl)-3-piperidin-4-yl-3H-imidazo[4,5-b]pyridin-2-yl]quinoline] are 0.01 and 1.01.
As for `CCCCc1nc2cc(-c3ccc4ccccc4c3)cnc2n1C1CCNCC1` [2-butyl-6-(2-naphthyl)-3-piperidin-4-yl-3H-imidazo[4,5-b]pyridine], the fold induction at 2 µM turned out to be 1.21.
On the same count and under the same terms, the value for `CCCCc1nc2c(-c3ccc4ccccc4c3)ccnc2n1C1CCNCC1` [2-butyl-7-(2-naphthyl)-3-piperidin-4-yl-3H-imidazo[4,5-b]pyridine] was 1.19; that for `Clc1nc2ccccc2cc1-c1nc2c(-c3ccc4ccccc4c3)ccnc2n1C1CCNCC1` [2-chloro-3-[7-(2-naphthyl)-3-piperidin-4-yl-3H-imidazo[4,5-b]pyridin-2-yl]quinoline] was 1.6.
`c1ccc2cc(-c3cnc4c(c3)nc(C3CCCCC3)n4C3CCNCC3)ccc2c1` [2-cyclohexyl-6-(2-naphthyl)-3-piperidin-4-yl-3H-imidazo[4,5-b]pyridine]: the fold induction at 2 µM worked out at 1.24 and the fold induction at 20 µM amounted to 0.01.
For `c1ccc2cc(-c3ccnc4c3nc(C3CCCCC3)n4C3CCNCC3)ccc2c1` [2-cyclohexyl-7-(2-naphthyl)-3-piperidin-4-yl-3H-imidazo[4,5-b]pyridine], the fold induction at 2 µM turned out to be 1.88.
Take `c1ccc2cc(-c3ccnc4c3nc(C3CCCC3)n4C3CCNCC3)ccc2c1` [2-cyclopentyl-7-(2-naphthyl)-3-piperidin-4-yl-3H-imidazo[4,5-b]pyridine]: the fold induction at 2 µM amounted to 1.46.
With `CCc1nc2cc(-c3ccc4ccccc4c3)cnc2n1C1CCNCC1` [2-ethyl-6-(2-naphthyl)-3-piperidin-4-yl-3H-imidazo[4,5-b]pyridine], the fold induction at 2 µM was 1.27 and the fold induction at 20 µM turned out to be 0.78.
In the case of `CCc1nc2c(-c3ccc4ccccc4c3)ccnc2n1C1CCNCC1` [2-ethyl-7-(2-naphthyl)-3-piperidin-4-yl-3H-imidazo[4,5-b]pyridine], the fold induction at 2 µM is 1.39.
The same measure, in the same setting: then `CC(C)Cc1nc2cc(-c3ccc4ccccc4c3)cnc2n1C1CCNCC1` [2-isobutyl-6-(2-naphthyl)-3-piperidin-4-yl-3H-imidazo[4,5-b]pyridine], with 1.13; and `CC(C)Cc1nc2c(-c3ccc4ccccc4c3)ccnc2n1C1CCNCC1` [2-isobutyl-7-(2-naphthyl)-3-piperidin-4-yl-3H-imidazo[4,5-b]pyridine], with 1.05; and `CC(C)c1nc2cc(-c3ccc4ccccc4c3)cnc2n1C1CCNCC1` [2-isopropyl-6-(2-naphthyl)-3-piperidin-4-yl-3H-imidazo[4,5-b]pyridine], with 1.44.
For `COc1cc(-c2nc3c(-c4ccc5ccccc5c4)ccnc3n2C2CCNCC2)ccc1O` [2-methoxy-4-[7-(2-naphthyl)-3-piperidin-4-yl-3H-imidazo[4,5-b]pyridin-2-yl]phenol], the fold induction at 2 µM came out at 1.63 and the fold induction at 20 µM stood at 0.01.
For `Cc1ccc(CCn2c(C)nc3c(-c4ccc5ccccc5c4)ccnc32)cc1` [2-methyl-3-[2-(4-methylphenyl)ethyl]-7-(2-naphthyl)-3H-imidazo[4,5-b]pyridine] the same measures were 0.82 and 1.
On the same counts, the results for `Cc1nc2cc(-c3ccc4ccccc4c3)cnc2n1C1CCNCC1` [2-methyl-6-(2-naphthyl)-3-piperidin-4-yl-3H-imidazo[4,5-b]pyridine] are 1.06 and 1.17.
On the same counts, the results for `Cc1nc2c(-c3ccc4ccccc4c3)ccnc2n1CC1CCNCC1` [2-methyl-7-(2-naphthyl)-3-(piperidin-4-ylmethyl)-3H-imidazo[4,5-b]pyridine] are 1.12 and 0.08.
Turning to `Cc1nc2c(-c3ccc4ccccc4c3)ccnc2n1[C@@H]1CCNC1` [2-methyl-7-(2-naphthyl)-3-[(3R)-pyrrolidin-3-yl]-3H-imidazo[4,5-b]pyridine], the fold induction at 2 µM is 1.44 and the fold induction at 20 µM worked out at 0.55.
On the same counts, the results for `Cc1nc2c(-c3ccc4ccccc4c3)ccnc2n1[C@H]1CCNC1` [2-methyl-7-(2-naphthyl)-3-[(3S)-pyrrolidin-3-yl]-3H-imidazo[4,5-b]pyridine] are 1.57 and 0.4.
For `CC(=O)N1CCC(n2c(=O)n(C)c3c(-c4ccc5ccccc5c4)ccnc32)CC1` [3-(1-acetylpiperidin-4-yl)-1-methyl-7-(2-naphthyl)-1,3-dihydro-2H-imidazo[4,5-b]pyridin-2-one] the same measures were 1.09 and 0.51.
For `c1ccc(CN2CCC(n3cnc4c(-c5ccc6ccccc6c5)ccnc43)CC2)cc1` [3-(1-benzylpiperidin-4-yl)-7-(2-naphthyl)-3H-imidazo[4,5-b]pyridine] the same measures were 0.84 and 0.08.
For the molecule `O=C(N1CCOCC1)N1CCC(n2c(=O)[nH]c3c(-c4ccc5ccccc5c4)ccnc32)CC1` [3-[1-(morpholin-4-ylcarbonyl)piperidin-4-yl]-7-(2-naphthyl)-1,3-dihydro-2H-imidazo[4,5-b]pyridin-2-one], the fold induction at 2 µM is 1.33 and the fold induction at 20 µM turned out to be 1.02.
